R/S data for one substance are collected here from patent US20110098180A1, “Herbicide-Resistant Plants, And Polynucleotides And Methods For Providing Same” (United States Department of Agriculture, priority 2002, published 2011).

What all share (experiment): Fluridone enzyme inhibition assay, non-His-tagged PDS (Table 1)
Type in all cases: biochemical, Hydrilla verticillata
Common to all, as to details: relative to Arginine

Assay [1] has as its system Hydrilla PDS Arg^304 → Phenyalanine. On the procedure:
(§1) The expression constructs in Table 1 were derived from an original clone of the susceptible PDS gene from Hydrilla and then the Arg^304 was mutated to the listed amino acid. Expression was under the control of the lac promoter […] with the initiation codon of the LacZalpha-ccdB gene in the pCR4-TOPO vector (Invitrogen Inc., CA, Cat. #K4575-01).
(§2) All mutagenesis was performed, unless stated otherwise, using the TOPO-vector containing the wildtype (H4) PDS-sequence, which was extracted from an overnight culture with the Qiagen Plasmid Prep Kit as described above. The amount of the extracted plasmid was diluted to 10 ng/μl and used as template in a mutagenesis-procedure using the QuikChange Site-directed Mutagenesis Kit (Stratagene, Calif., #200518). The design of the mutagenesis-primers was conducted according to the manufacturers protocol to enable the specific change of Arg^304-codon to code for the desired amino acid. Primers (purchased from MWG-Biotech) and their introduced amino acid change are listed below with the changed codon underlined:
(§3) The reactions were performed according to the manufacturers protocol. Reactions were set up in MicroAmp-tubes on ice with 38 μl ddH2O, 5 μl 10× reaction buffer, 2 μl plasmid (10 ng/μl), 1.25 μl forward-mutagenesis primer (100 ng/μl), 1.25 μl of reverse mutagenesis primer (100 ng/μl), 1 μl dNTP-mix and 1 μl PfuTurboDNA polymerase (2.5 U/μl). The reactions were placed in a PE 9700 thermal cycler and heated to 95° C. for 30 sec followed by 12 rounds at 95° C. for 30 sec, 55° C. for 1 min and 68° C. for 12 min. The PCR was followed by a DpnI-digestion and transformation in XL1-Blue supercompetent cells as described in the manual. 4-6 resulting colonies were grown overnight in LB-medium with kanamycin and plasmid DNA was isolated as described above. The plasmid was used as template for sequencing with M13 and internal PDS-primers as described above on a LiCOR-system. Sequences were assembled and analyzed using Seqman. Introduced mutations were identified and plasmids carrying the desired mutation(s) were transferred into competent TOP10-cells, using the transformation protocol from the TOPO TA Cloning Kit. Resulting colonies were grown overnight in Wu-broth with kanamycin, aliquoted and stored at −80° C. until further use. 1 ml of Wu-cultures was used to start 1-L LB-cultures with kanamycin as described before, to express active PDS-enzyme for testing as described.
(§4) Phytoene desaturase activity and its inhibition by herbicides was determined using an in vitro system using components derived from the in vivo production of phytoene and phytoene desaturase proteins. All mutations described in Examples 3 and 4 were tested. […] The clones were used for the heterologous expression of Hydrilla-PDS-enzyme. In particular, bacterial cultures were grown from single colonies overnight in Wu-broth (6.27 g/L K2HPO4, 1.8 g/L KH2PO4, 0.5 g/L Na-citrate, 0.9 g/L (NH4)2SO4, 10 g/L tryptone, 5 g/L yeast extract, 10 g/L NaCl, 44 ml/L glycerol, 0.1 mM MgSO4, pH 7.2) with kanamycin. 1-mL was aliquoted in centrifuge tube and stored at −80° C. For expression, 1 L LB-medium with kanamycin was inoculated with 1-mL Wu-culture and grown for 24 h at 37° C. to stationary phase with shaking at 200 rpm. The cells were collected by centrifugation at 2000×g. All of the following steps were done at 4° C. unless otherwise noted. Active soluble PDS enzyme was extracted by lysing the transformed E. coli cells using a French Press at 20,000 psi in assay buffer consisting of 100 mM Tris-HCl, pH 7.2, 10 mM magnesium-chloride, 0.1 mM NADP, 0.1 mM FAD, 10 mM cysteine, 5 mM DTT, 1 mM aminocaproic acid, and 1 μg/ml leupeptin. The soluble fraction containing PDS activity was obtained by centrifugation for 10 min at 1200×g. After 24 h they were centrifuged down and used in PDS enzyme activity assays as described below.

In assay [2] the test system is Hydrilla PDS Arg^304 → Methionine. As for the experimental part:
as §1, §2, §3, §4

Assay [3] relates to Hydrilla PDS Arg^304 → Threonine. As for the experimental part:
as §1, §2, §3, §4

Assay [4] has as its system Hydrilla PDS Arg^304 → Glutamine. As for the experimental part: as §1, §2, §3, §4
Assay [5] relates to Hydrilla PDS Arg^304 → Aspartic acid. As for the experimental part:
as §1, §2, §3, §4

Assay [6] deals with Hydrilla PDS Arg^304 → Glutamic acid. On the procedure: as §1, §2, §3, §4

Turning to Fluridone, the R/S in assay [1] was 2.6; in assay [2] it was 11.5; in assay [3], 40; in assay [4], 19; in assay [5], 10; in assay [6], 1.5.
